For the assay, the system named is E. coli, Streptococcus sp. and Proteus sp. isolated from the xenic culture. Nature of the assay: Antibiotic susceptibility tests (antibiotic discs) with bacterial strains isolated from the xenic culture. As to conditions: strains isolated from original xenic culture (E. coli, Streptococcus sp., Proteus sp.).

On to `C[C@@H](O)[C@H]1C(=O)N2C(C(=O)O)=C(S[C@@H]3CN[C@H](C(=O)N(C)C)C3)[C@H](C)[C@H]12` [meropenem], for which the “susceptibility tests of the bacterial strains” value is “resistant to most antibiotics, except meropenem, neomycin and rifampicin”. The entry for neomycin is “resistant to most antibiotics, except meropenem, neomycin and rifampicin”.

(Values after US10350281B2 (priority 2012, dated 2019).)
